Measured values from US10195284B2, “Compositions and methods for controlled localized delivery of bone forming therapeutic agents” (University of Rochester, priority 2013, dated 2019).
pKd: −log10 of the molar value. Where “and” joins values, the source holds several entries; their conditions need not be identical. Equal entries are not always repeated. Where two headings read alike, the source gives them in different places. Ends that are not written are not given here.

Key:
[1] = biological target: T1, TRAP protein (Homo sapiens, UniProt P13686); assay: SPR affinity of peptide-functionalized polymers for TRAP, initial rate analysis of sensorgrams; type: binding; settings: for SPR binding response to TRAP: sensorgrams
T1 sequence (P13686 22-325): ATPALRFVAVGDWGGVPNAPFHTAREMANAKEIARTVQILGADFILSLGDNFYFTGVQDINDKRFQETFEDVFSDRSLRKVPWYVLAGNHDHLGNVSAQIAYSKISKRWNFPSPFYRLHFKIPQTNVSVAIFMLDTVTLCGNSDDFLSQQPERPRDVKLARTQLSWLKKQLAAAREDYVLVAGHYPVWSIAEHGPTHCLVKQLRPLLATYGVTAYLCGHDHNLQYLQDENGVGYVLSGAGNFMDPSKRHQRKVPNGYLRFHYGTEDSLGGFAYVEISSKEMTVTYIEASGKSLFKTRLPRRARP
Protocol: Surface plasmon resonance (SPR) is used to assess the affinity of peptide-functionalized polymers for TRAP. Series S Sensor CM5 Chips are functionalized with TRAP via 1-ethyl-3-(3-dimethylaminopropyl) carbodiimide (EDC)/N-hydroxysuccinimide (NHS) chemistry. Briefly, the chips, which have a carboxymethylated dextran functionality, are activated through the introduction of NHS and EDC. After activation, TRAP protein, at 30 μg/mL in sodium acetate (pH=5), is introduced to the surface. Ethanolamine-hydrochloric acid is used to quench unreacted carboxysuccinimide groups. Polymers are dissolved in running buffer of PBS with 0.005% Tween20. Polymers are analyzed in duplicate at different concentrations. Surface regeneration is achieved using 1-10 mM NaOH solutions as necessary. […] Sensorgram data (FIG. 22) are exported from the SPR evaluation software after smoothing data of injection events and analyzed. Response units (RU) are converted into concentrations for rate analysis using the equation: S[M]=RU/60000 MW
Where S is the concentration of polymer bound to the TRAP-functionalized surface and MW is the molecular weight of the polymer. The binding rates of polymers to TRAP are determined in the initial linear portion of association, within two seconds of the start of injection. The reciprocals of binding rates are plotted against the reciprocals of polymer concentrations to obtain a linear relationship, generalized in the equation: Vi^−1=KDSi^−1Vm^−1Vm^−1
Where Vi is the binding rate for each i concentration of polymer and Vm is the maximum binding rate of polymer to TRAP. This relationship identifies the KD for each polymer (Table 4). Only TBP-functionalized polymers show affinity for TRAP (FIG. 22), as control (SCP-functionalized and PEG) polymer show no positive binding response (FIG. 23A through FIG. 23C).

[2] = biological target: T2, tartrate-resistant acid phosphatase (TRAP) (Homo sapiens, UniProt P13686); assay: Surface plasmon resonance (SPR) affinity of peptides and peptide-functionalized polymers for TRAP, binding-curve fit
T2 sequence (P13686 22-325): T1 sequence (P13686 22-325)
Protocol: Surface plasmon resonance (SPR) is used to assess the affinity of peptides for TRAP. Series S Sensor CM5 Chips are functionalized with TRAP via 1-ethyl-3-(3-dimethylaminopropyl) carbodiimide (EDC)/N-hydroxysuccinimide (NHS) chemistry. Briefly, the chips, which have a carboxymethylated dextran functionality, are activated through the introduction of NHS and EDC. After activation, TRAP protein, at 30 μg/mL in sodium acetate (pH=5), is introduced to the surface. Ethanolamine-hydrochloric acid is used to quench unreacted carboxysuccinimide groups. Peptides are dissolved in running buffer of PBS with 0.005% Tween20. Peptides are analyzed in duplicate at different concentrations. Surface regeneration is achieved using a combination of 1 and 2 M NaCl and 1-50 mM NaOH solutions as necessary.
In SPR, the binding of any molecules to the surface of the sensor chips results in a change in the angle of incident light reflection, allowing highly-sensitive detection of miniscule amounts of ligand binding to the surface. Target affinity can be determined by introducing increasing concentrations of the ligand to the surface. Higher concentrations of samples elicited larger responses. The binding response was measured and plotted against concentration (FIG. 4), allowing for a fitting of the data by a binding curve. From this fitting, values such as KD can be determined. Through this technique, the affinity of TBP and SCP was analyzed. […] While not wishing to be bound by any particular theory, a possible, but improbable, cause for difference in affinity is the inclusion of the glycine residue on the carboxylic end of the synthesized peptide used herein. Despite this addition, the order of the original sequence is preserved, and glycine is a small, uncharged and nonpolar amino acid. […] In prior studies using phage display, five copies of the peptide are present and exposed (Sheu et al., 2002, Journal of Bone and Mineral Research, 17(5):915-922). Therefore, part of the higher affinity seen in the phage display experiments could be due to the multivalent nature of the peptide on the phage.
Quantitative analyses of peptide and polymer affinities were performed using SPR. […] The binding of any molecules to the surface of the sensor chips results in a change in the angle of incident light reflection, allowing highly-sensitive detection of miniscule amounts of ligand binding to the surface. Target affinity can be determined by introduction of increasing concentrations of the molecule to the surface (FIG. 38A and FIG. 38B). Typically higher concentrations of samples elicited larger responses, with a larger response from polymers at lower concentrations in comparison to the TBP alone. […] Furthermore, polymer samples required the application of regeneration buffers, ranging from a mild buffer of 500 mM NaCl to a harsher buffer of 5 mM NaOH, to return the signal to previous levels. The binding response is measured and plotted against concentration, allowing for a fitting of the data by a binding curve. From this fitting, values such as the dissociation constant (KD) value can be determined. Through this technique, the affinity of peptides and peptide-functionalized polymers were analyzed. […] However, inclusion of peptide functionalities results in substantial increases in TRAP affinities (KD˜7.1-21 μM). […] While not wishing to be bound by any particular theory, a possible, but improbable, cause for difference in affinity is the inclusion of the glycine residue on the carboxylic end of the synthesized peptide used herein. Despite this addition the order of the original sequence is preserved and glycine is a small, uncharged and nonpolar amino acid. […] In prior studies using phage display, five copies of the peptide are present and exposed (Sheu et al., 2002, Journal of Bone and Mineral Research, 17(5): 915-922). Therefore part of the higher affinity seen in the phage display experiments could be due to the multivalent nature of the peptide on the phage. […]

[3] = system: Mouse osteoblasts (MC3T3E1); assay: Cytocompatibility of peptide-functionalized polymers, Picogreen DNA assay; type: cell-based; settings: 0.1 mM and 10 mM, 7 days, normalized to media alone
Protocol: Mouse osteoblasts (MC3T3E1) were maintained in alpha minimum essential media (α-MEM, Gibco), containing 10% fetal bovine serum (FBS, Invitrogen) and 1% penicillin-streptomycin-fungizone at 37° C. and 5% CO2. Cells were utilized at passage 5. To assess the cytocompatibility of peptide-functionalized polymers, cells were seeded in a 48 well plates at 10,000 cells/well and allowed to adhere overnight. Cells were treated with media alone or with peptide or peptide-functionalized polymers (0.1 mM and 10 mM) for 7 days, with media exchanges every two days. These concentrations employed are far higher than expected to be necessary for future uses and allowed for isolation of the maximum tolerated doses in vitro. After seven days of exposure, cells were washed, lysed by sonication, and analyzed for DNA concentration using the Picogreen Assay (Invitrogen). Results were normalized to cells treated with media alone.

[4] = Vougogiannopoulou et al., 2008; cited from earlier work
[5] = system: β-catenin and ALP in osteoblasts; assay: BIO treatment of osteoblasts, β-catenin levels and ALP production; type: cell-based; settings: 24 hours treatment
Protocol: Data represents mean±standard deviation for 3 trials. *p<0.05 versus control, #p<0.05 versus 2 μM BIO (n=5).
Several BIO-releasing polymers that are the correct molecular weight to enhance circulation time and avoid renal clearance have been successfully synthesized. […] Finally, released BIO biological activity is confirmed versus the free, unconjugated molecule and rescue of β-catenin signaling in osteoblasts is verified.

[6] = system: β-catenin in MSCs; assay: β-catenin agonism and cellular uptake of NPs in MSCs; type: cell-based; settings: over 5 days of treatment
Protocol: To investigate the intracellular accessibility of this NPs, polymers were labeled with fluorescein isothiocyanate (FITC) fluorophore and incubated with MSCs (FIG. 44B). […] To validate β-catenin agonism of NP delivered GSK3β inhibitor XXVII, cells were treated with free GSK3β inhibitor XXVII and NP delivered GSK3β inhibitor XXVII.

[7] = Bone resorption pit binding of fluorescently labeled peptides, confocal imaging; parameters: species or system human; settings: fluorescently labeled peptide, overnight incubation
Protocol: Equal concentrations of fluorescently labeled TBP and SCP are prepared in 1× phosphate-buffered saline (PBS). Bone wafers are cut from cortical bone obtained from the femur of a human donor cadaver and incubated in peptide solutions overnight, washed twice with 1×PBS, and then visualized via confocal imaging. Stacked sections are compressed into 2D images to allow for qualitative analysis as in FIG. 3A through FIG. 3D. […] Qualitatively, no binding of SCP is detected (FIG. 3D).

[8] = Bone targeting of fluorescently labeled polymer therapeutics on osteoclast-resorbed bone wafers; type: binding, bovine
Protocol: Bovine cortical bone is cut into 5-mm square, 0.5-mm thick wafers using a low speed saw with a diamond wafering blade. Bone wafers are boiled in ddH2O for 15 minutes, placed in 96-well plates, sterilized in 70% ethanol for half an hour on each side, washed thrice in 1×PBS, and incubated in alpha minimum essential medium (α-MEM) for at least 1 hour at 37° C. before cell seeding.
Monocytes are freshly isolated from the spleens of mice, filtered twice with a 40 μm cell strainer, collected via centrifugation (5 minutes, 1000 rpm), and re-suspended in sterile filtered mouse red blood cell lysis buffer for 10 minutes at room temperature. After neutralizing lysis buffer with 1×PBS, monocytes are collected via centrifugation and washed in α-MEM containing 10% fetal bovine serum, 1% penicillin-streptomycin-fungizone, 1% GlutaMAX, and 1% non-essential amino acids before re-suspension in medium containing 100 ng mL^−1 M-CSF conditioned medium (Takeshita et al., 2000, J Bone Miner Res 15:1477). Monocytes are seeded in 96-well plates on the tissue culture surface or on prepared bovine cortical bone wafers at 2×10^5 cells well^−1 (1×10^6 cells mL^−1). After 3 days of incubation at 37° C. and 5% CO2, medium is supplemented with 1 ng mL^−1 receptor activator of nuclear factor κB ligand (RANKL) to induce osteoclast differentiation. […]

[9] = system: areas with cathepsin K and osteoclast activity at calvarial defect; assay: Co-localization of polymers to actively remodeling bone, two-photon microscopy of cranial window defect; type: in vivo, mice; settings: 5 mg kg^−1 intraperitoneal, imaged thirty minutes later
Protocol: A thinned-skull cranial window is produced in mice as previously described (Yang et al., 2010, Nat Protoc 5:201). Briefly, a 500-μm diameter defect is made in the skull of mice and covered with a glass coverslip. The night before imaging, mice are injected intraperitoneal with 100 μL reconstituted cathepsin K probe in 1×PBS, prepared according to the manufacturer's protocol. At times of 3 and 8 days post-procedure, 5 mg kg^−1 of fluorescently-labeled pTBP, pSCP, or PEG in saline is injected intraperitoneal and imaged thirty minutes later using two-photon microscopy (Olympus Fluoview). Cathepsin K, a cysteine protease, is secreted by osteoclasts; therefore, TRAP is expected to be present in areas with cathepsin K activity. […] Bone drilling defects have been used previously to investigate osteoclast activity, with osteoclast accumulation at the defect evident from positive TRAP staining (Tanaka et al., 2010, J Biomed Mater Res, 93A(2): 469-474). […] Other live imaging modalities and sections of sacrificed mice are used to track biodistribution to other organs. Since the amino acid sequence of human, mouse, and rat TRAP is 89-94% homologous (Lamp and Drexler, 2000, Leukemia Lymphoma, 39(5-6): 477-484), it is probable that TBP-functionalized polymer therapeutic affinity to TRAP in mice can be translated into humans.

[10] = TRAP-functionalized CM5 chip, n = 2, Ave. ± StDev, read-out: KD

10% SCP (VPVGTLSYLKLTG) [reference compound]
SPR binding response to TRAP [1]: negative responses

10% TBP (TPLSYLKGLVTVG)
SPR binding response to TRAP [1]: positive response

10% peptide-functionalized polymer (TPLSYLKGLVTVG)
pKd [2, 10]: 4.90 | cytocompatibility / cytotoxic effects [3]: worst cytocompatibility of all polymers tested

20% SCP (VPVGTLSYLKLTG) [reference compound]
SPR binding response to TRAP [1]: negative responses

20% TBP (TPLSYLKGLVTVG)
pKd ([1]; initial rate analysis of SPR sensorgrams): 4.15

20% peptide-functionalized polymer (TPLSYLKGLVTVG)
pKd [2, 10]: 5.12

O=C1Nc2cc(Br)ccc2/C1=C1/Nc2ccccc2/C1=N\O [BIO, 6-bromoindirubin-3′-oxime]
water solubility [4]: poor water solubility | ALP production ([5]; analyzed 7-days after treatment): increased | β-catenin levels ([5]; just after treatment): increased

CN1CCN(S(=O)(=O)c2ccc(-c3cnc(N)c(C(=O)Nc4cccnc4)n3)cc2)CC1 [GSK3β inhibitor XXVII, 3-amino-6-{4-[(4-methyl-1-piperazinyl)sulfonyl]phenyl}-N-(3-pyridinyl)-2-pyrazinecarboxamide]
β-catenin agonism / activation [6]: potent agonist of β-catenin

H-TPLSYLKGLVTVG [TBP]
pKd ([2]; binding-curve fit, read-out: KD for TRAP): ~3.70 and ~3.15 | pKd ([2]; read-out: affinity for TRAP measured with SPR): 3.10 | binding to bone resorption pits [7]: specific binding

TBP-functionalized polymer therapeutics (TPLSYLKGLVTVG)
localization to resorption pits ([8]; resorbed bone wafers, fluorescently labeled): localize to resorption pits | affinity for untreated bone ([8]; untreated bone wafers): No affinity | colocalization with cathepsin K and osteoclast activity [9]: colocalize to areas with cathepsin K and osteoclast activity

scrambled control peptide, VPVGTLSYLKLTG (SEQ ID NO: 2) (VPVGTLSYLKLTG-OH; also: methacrylamide introduced on amine end for polymer incorporation) [SCP, reference compound]
affinity for TRAP measured with SPR [2]: no affinity | KD for TRAP ([2]; binding-curve fit): did not enable fitting of a binding curve or calculations of affinity | binding to bone resorption pits [7]: no binding
